Reference: patent publication US11213815B2, “Netwell assay plate system” (VIB VZW, priority 2016, dated 2022)

Test system: Arabidopsis plants
Experiment: Arabidopsis netwell growth assay (rosette area over time, plants grown in soil in the multiwell plate system)
Assay type: in vivo
Experimental: In the Arabidopsis […] growth assay, plants were grown in soil inside a 24 well […] insert plate comprising a polystyrene porous membrane with a pore size of about 420 μm, which is positioned into a 24 well irrigation plate (FIG. 1, 2). Before sowing, seeds were vernalized in water at 4 degrees Celsius for two days. Afterwards, the […] insert plate was filled with fine potting soil, or optionally with soil mixed with sand (ratio 3:1). During this process the soil (or soil with sand) was compressed two times (or optionally three times for soil/sand) by applying a light pressure onto the individual […]. A “humidity control” soil sample was taken for determination of the initial soil water humidity (see later). Next, one mL of water was added to each of the wells of the irrigation plates. The […] insert plates were positioned inside the irrigation plates and the mounted plates were sealed with (plastic) tape surrounding the edges, to prevent excessive water evaporation from the boundary wells as compared to the center wells of the 24 well plate. This was a crucial step to avoid growth differences between plants in boundary and center wells, and to obtain reproducible results. Next, the weight of the combined insert and irrigation plates was recorded. When seeds were used as samples, during the sowing of the Arabidopsis seeds, one seed was distributed in each of the wells. For germination, the […] insert plates were covered with a standard multiwell cover plate which was sealed with parafilm and was placed inside a plant growth chamber. After three days, the covers were removed and the plants continued to grow at normal atmospheric conditions. At 7 days after sowing, or when the appropriate plant stage was reached (e.g. 7 and 10 or 5 and 7 days), the plants received a (chemical) treatment. Therefore, 0.5 (optionally 0.8 mL for soil with sand) of a (chemical-containing) solution was added to each of the wells via the corresponding access holes. Each plant sample receives the supplied (same) amount of (chemical) solution. In the days following the treatment, the plants were again irrigated with water to maintain a soil water humidity of 3.5 (or optionally 0.95 for soil with sand) (see below). In the 24 well format the growth of Arabidopsis plants was typically followed for about 15 days, during which image analysis procedures were used to follow the growth of the individual plant samples over time and to quantify the growth response of these plants in response to the specific (chemical) treatments. The initial soil water humidity was determined by first drying the “humidity control” soil sample in an oven at 60 degrees Celsius, to obtain the “dry weight”. Next, taking into account the weight of the empty irrigation plates, the empty […] insert plates, and the current weight of the combined insert and irrigation plates, water was added to each of the wells to reach a “soil water humidity” of “3.5 gram water per gram of dry soil” or “3.5” (optionally, when soil with sand was used: “0.95 gram water per gram of dry soil (with sand)” was used as initial soil water humidity value). Water was added into the irrigation plate wells through the access holes present in the corresponding […] insert plate wells using a repetition pipet. Due to equal evaporation of water from individual wells within one insert plate, each well of the irrigation plate received the same amount of water, rounded to 100 μL. The water, added to the wells in the irrigation plates, is taken up by the soil present in the hollow chambers of the […] insert plate wells, through the mesh by capillary forces (FIG. 3B). This irrigation was repeated on a daily basis to prevent excessive drying of the soil in the wells. This watering regime is suitable for frequently used Arabidopsis growth conditions, but can be altered and further optimized when a plant drought-stress response is the desired testing regime. Plants were grown as described in the above […] assay method. […]

SMILES: CC(C)(C)[C@@H](O)[C@@H](Cc1ccc(Cl)cc1)n1cncn1 (racemic) [Paclobutrazol]
- effect on plant growth (rosette area), dose response (Example 6, 0.8 mL at 7 and 10 DAS, Paclobutrazol 10, 20, 100 μM vs 0.1% DMSO, FIG. 8B): plant growth retarding effect

SMILES: c1ccc(CNc2ncnc3nc[nH]c23)cc1 [BAP, 6-Benzylaminopurine]
- effect on plant growth (average projected rosette area over time) (Example 2, 0.5 mL treatment solution at 8 DAS, 10 μM Kresoxim-methyl or 10 μM 6-Benzylaminopurine, imaging 4-16 DAS, vs water control, FIG. 4): shoot growth inhibition

SMILES: O=C(O)Cc1cccc2ccccc12 [NAA, 1-Naphthaleneacetic acid]
- rosette size versus NAA concentration (Example 5, 0.8 mL at 7 and 10 DAS, 1, 10, 20, 100 μM NAA vs DMSO vehicle, imaging 4-14 DAS, FIG. 7B): The higher the concentration of NAA during the treatment, the smaller the rosette size
- maximal inhibitory concentration (Example 5, rosette growth, concentration at which maximal inhibition was probably already reached): ≤ 50 µM

SMILES: O=C(O)/C=C\c1ccccc1 [cis-CA, cis-cinnamic acid]
- effect on plant growth (rosette area) at higher concentration, dose response (Example 6, 0.8 mL at 7 and 10 DAS, cis-CA 20, 50, 100 μM vs 0.1% DMSO, FIG. 8A): plant growth retarding effect
- effect on plant growth (rosette area) at low concentration (Example 6, 0.8 mL at 7 and 10 DAS, cis-CA at 1 (unit not given) vs 0.1% DMSO, FIG. 8A): slightly positive effect
- toxicity for the plant at higher concentration (Example 6, cis-CA at higher concentration (20, 50, 100 μM), FIG. 8A): rather toxic for the plant
